Measured values taken from patent publication US10231954B2, “Neurodegenerative therapies” (LYTIX BIOPHARMA AS, priority 2014, dated 2019).
Read-outs that look alike come from different tables or passages of the source.

Legend:
Type in all cases: biochemical
CDK2-Cyclin A = CDK2-Cyclin A (Homo sapiens, UniProt P24941); test: Kinase profiling CDK2-Cyclin A; details: for remaining activity at 100 µM: read-out: residual kinase activity, CDK2-Cyclin A
Text: (§1) Any value less that 25 is considered to be highly significant inhibition.

EIF2AK3 = target: T1, EIF2AK3 (Homo sapiens, UniProt Q9NZJ5); test: Kinase profiling EIF2AK3; details: for remaining activity at 100 µM: read-out: residual kinase activity, EIF2AK3
T1 sequence (Q9NZJ5 30-1116): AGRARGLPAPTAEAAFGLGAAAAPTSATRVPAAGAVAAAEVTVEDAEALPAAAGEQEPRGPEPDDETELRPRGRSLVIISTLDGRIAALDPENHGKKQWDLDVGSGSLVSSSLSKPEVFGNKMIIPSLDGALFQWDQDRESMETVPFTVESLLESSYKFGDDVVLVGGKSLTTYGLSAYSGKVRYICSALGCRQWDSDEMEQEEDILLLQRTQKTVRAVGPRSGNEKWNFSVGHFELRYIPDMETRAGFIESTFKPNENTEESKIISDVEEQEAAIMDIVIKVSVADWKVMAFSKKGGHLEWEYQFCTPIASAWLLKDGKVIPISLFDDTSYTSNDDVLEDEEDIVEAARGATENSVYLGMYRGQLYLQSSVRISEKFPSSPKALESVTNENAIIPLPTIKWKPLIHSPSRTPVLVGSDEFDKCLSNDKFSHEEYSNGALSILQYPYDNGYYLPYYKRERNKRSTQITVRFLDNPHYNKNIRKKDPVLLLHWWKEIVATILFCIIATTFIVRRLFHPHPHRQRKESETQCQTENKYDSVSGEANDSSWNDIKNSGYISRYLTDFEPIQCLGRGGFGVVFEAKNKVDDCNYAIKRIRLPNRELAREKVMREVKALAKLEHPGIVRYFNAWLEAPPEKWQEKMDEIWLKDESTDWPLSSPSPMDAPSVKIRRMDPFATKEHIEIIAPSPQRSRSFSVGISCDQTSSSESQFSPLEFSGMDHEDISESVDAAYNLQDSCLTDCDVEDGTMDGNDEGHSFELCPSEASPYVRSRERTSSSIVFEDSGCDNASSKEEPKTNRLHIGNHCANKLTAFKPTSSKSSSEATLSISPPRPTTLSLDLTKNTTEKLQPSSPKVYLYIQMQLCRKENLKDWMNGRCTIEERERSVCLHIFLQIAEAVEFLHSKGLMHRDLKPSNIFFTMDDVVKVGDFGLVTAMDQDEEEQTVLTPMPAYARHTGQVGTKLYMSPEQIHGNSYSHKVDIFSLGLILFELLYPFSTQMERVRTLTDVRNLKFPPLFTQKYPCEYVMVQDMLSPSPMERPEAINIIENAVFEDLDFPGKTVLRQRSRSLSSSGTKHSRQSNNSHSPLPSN
Text: as §1

BRK = BRK (Homo sapiens, UniProt Q13882); test: Kinase profiling BRK; details: for remaining activity at 100 µM: read-out: residual kinase activity, BRK
Text: as §1

IRAK1 = IRAK1 (Homo sapiens, UniProt P51617); test: Kinase profiling IRAK1; details: for remaining activity at 100 µM: read-out: residual kinase activity, IRAK1
Text: as §1

IKKe = target: T2, IKKe (Homo sapiens, UniProt Q14164); test: Kinase profiling IKKe; details: for remaining activity at 100 µM: read-out: residual kinase activity, IKKe
T2 sequence (Q14164 1-716): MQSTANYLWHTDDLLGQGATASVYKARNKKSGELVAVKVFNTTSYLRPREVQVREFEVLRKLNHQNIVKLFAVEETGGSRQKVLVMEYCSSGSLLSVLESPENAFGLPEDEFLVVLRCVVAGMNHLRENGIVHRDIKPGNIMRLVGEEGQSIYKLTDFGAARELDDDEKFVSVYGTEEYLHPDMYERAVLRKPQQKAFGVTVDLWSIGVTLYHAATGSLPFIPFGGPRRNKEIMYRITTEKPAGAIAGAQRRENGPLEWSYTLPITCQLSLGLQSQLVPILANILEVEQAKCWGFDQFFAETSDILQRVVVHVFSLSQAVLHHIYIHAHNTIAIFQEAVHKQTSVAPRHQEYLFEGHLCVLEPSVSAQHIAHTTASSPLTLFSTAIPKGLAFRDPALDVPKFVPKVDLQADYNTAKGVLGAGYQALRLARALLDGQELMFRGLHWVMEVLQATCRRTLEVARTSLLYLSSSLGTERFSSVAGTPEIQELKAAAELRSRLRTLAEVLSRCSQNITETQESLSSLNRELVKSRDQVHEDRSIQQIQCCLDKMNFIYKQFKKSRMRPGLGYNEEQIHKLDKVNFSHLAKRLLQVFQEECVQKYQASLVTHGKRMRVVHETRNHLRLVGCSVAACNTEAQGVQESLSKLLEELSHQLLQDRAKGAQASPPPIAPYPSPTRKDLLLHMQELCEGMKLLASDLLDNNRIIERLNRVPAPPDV
Text: as §1

MNK1 = MNK1 (Homo sapiens, UniProt Q9BUB5); test: Kinase profiling MNK1; details: for remaining activity at 100 µM: read-out: residual kinase activity, MNK1
Text: as §1

[1] = 100 micromolar inhibitor concentration, 100 is no change
[2] = 100 micromolar inhibitor, 100 = no change

Chain of IRAK1 (P51617 whole entry, species assumed): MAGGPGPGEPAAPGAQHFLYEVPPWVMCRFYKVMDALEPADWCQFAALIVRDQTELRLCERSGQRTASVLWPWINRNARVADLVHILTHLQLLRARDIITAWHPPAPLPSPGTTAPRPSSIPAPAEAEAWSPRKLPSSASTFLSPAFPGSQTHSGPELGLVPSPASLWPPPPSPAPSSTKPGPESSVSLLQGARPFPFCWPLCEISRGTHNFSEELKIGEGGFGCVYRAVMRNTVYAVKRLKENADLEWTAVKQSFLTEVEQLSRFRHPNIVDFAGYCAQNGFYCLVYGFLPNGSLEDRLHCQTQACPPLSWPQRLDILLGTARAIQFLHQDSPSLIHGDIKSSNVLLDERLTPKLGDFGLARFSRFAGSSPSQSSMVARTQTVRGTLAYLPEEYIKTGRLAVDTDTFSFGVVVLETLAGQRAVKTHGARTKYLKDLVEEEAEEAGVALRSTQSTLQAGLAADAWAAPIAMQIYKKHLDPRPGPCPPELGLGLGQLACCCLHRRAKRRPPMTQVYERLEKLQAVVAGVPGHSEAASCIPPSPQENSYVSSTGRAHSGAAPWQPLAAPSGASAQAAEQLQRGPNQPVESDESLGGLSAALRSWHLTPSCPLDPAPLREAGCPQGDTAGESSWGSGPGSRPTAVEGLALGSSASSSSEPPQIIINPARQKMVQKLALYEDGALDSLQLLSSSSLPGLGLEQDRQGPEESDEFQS
Chain of MNK1 (Q9BUB5 whole entry, species assumed): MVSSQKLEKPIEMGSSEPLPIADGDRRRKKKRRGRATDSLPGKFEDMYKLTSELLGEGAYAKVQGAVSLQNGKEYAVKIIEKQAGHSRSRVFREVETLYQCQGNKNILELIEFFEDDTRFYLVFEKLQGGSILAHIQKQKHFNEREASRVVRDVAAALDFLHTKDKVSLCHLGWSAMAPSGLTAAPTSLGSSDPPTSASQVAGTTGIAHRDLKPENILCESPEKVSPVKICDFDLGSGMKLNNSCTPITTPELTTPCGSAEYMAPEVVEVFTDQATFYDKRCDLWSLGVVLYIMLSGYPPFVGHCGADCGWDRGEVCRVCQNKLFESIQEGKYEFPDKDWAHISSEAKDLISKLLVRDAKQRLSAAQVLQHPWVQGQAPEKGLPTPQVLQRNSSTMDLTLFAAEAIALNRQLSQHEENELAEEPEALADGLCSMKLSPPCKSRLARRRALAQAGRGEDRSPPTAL
Chain of BRK (Q13882 whole entry, species assumed): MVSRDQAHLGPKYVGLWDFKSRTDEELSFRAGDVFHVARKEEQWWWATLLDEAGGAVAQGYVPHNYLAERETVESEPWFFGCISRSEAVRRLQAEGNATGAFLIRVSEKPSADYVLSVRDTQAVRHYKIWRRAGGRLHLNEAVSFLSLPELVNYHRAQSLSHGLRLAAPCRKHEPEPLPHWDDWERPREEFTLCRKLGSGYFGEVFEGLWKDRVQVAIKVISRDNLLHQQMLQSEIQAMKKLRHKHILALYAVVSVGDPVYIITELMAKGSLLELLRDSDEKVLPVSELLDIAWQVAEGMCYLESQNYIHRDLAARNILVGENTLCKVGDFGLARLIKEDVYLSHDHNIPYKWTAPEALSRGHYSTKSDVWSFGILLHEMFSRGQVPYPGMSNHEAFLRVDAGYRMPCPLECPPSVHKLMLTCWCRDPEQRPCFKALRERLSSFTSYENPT

SMILES | remaining activity at 100 µM (CDK2-Cyclin A; [1]) | remaining activity at 100 µM (EIF2AK3; [1]) | remaining activity at 100 µM (BRK; [1]) | remaining activity at 100 µM (IRAK1; [1]) | remaining activity at 100 µM (IKKe; [1]) | remaining activity at 100 µM (MNK1; [1]) | residual kinase activity, CDK2-Cyclin A (CDK2-Cyclin A; [1]) | residual kinase activity, EIF2AK3 (EIF2AK3; [1]) | residual kinase activity, BRK (BRK; [1]) | residual kinase activity, IRAK1 (IRAK1; [1]) | residual kinase activity, IKKe (IKKe; [1]) | residual kinase activity, MNK1 (MNK1; [1]) | other results
CC(=O)Nc1nc2cc(O)ccc2s1 [Compound 01-66, N-(5-hydroxybenzo[d]thiazol-2-yl)acetamide] |  |  |  |  |  |  |  |  |  |  |  |  | remaining activity at 100 µM (CDK2-Cyclin A): 71%; remaining activity at 100 µM (EIF2AK3): 59%; remaining activity at 100 µM (BRK): 77%; remaining activity at 100 µM (IRAK1): 29%; remaining activity at 100 µM (IKKe): 68%; remaining activity at 100 µM (MNK1): 17%
CC(=O)Nc1nc2ccc(O)cc2s1 [Compound 01-71] | 30% | 77% | 22% | 26% | 58% | 28% |  |  |  |  |  |  | 
CC(=O)Nc1nc2ccc(C(F)(F)F)cc2s1 [Compound 01-90] | 22% | 105% | 99% | 43% | 81% | 65% |  |  |  |  |  |  | 
CC(=O)Nc1nc2ccc(C#N)cc2s1 [Compound 01-94] | 11% | 78% | 100% | 11% | 64% | 47% |  |  |  |  |  |  | 
CC(=O)Nc1cccc(NC(=O)c2nc3ccc(O)cc3s2)c1 [Compound 03-07, N-(3-acetamidophenyl)-6-hydroxybenzo[d]thiazole-2-carboxamide] |  |  |  |  |  |  |  |  |  |  |  |  | remaining activity at 100 µM (CDK2-Cyclin A; [2]): 99%; remaining activity at 100 µM (EIF2AK3; [2]): 69%; remaining activity at 100 µM (BRK; [2]): 80%; remaining activity at 100 µM (IRAK1; [2]): 49%; remaining activity at 100 µM (IKKe; [2]): 73%; remaining activity at 100 µM (MNK1; [2]): 40%
O=C(Nc1nc2cc(O)ccc2s1)c1ccncc1 [Compound 03-11] |  |  |  |  |  |  | 98 | 65 | 93 | 68 | 69 | 45 | 
O=C(Nc1nc2ccc(O)cc2s1)c1ccccn1 [Compound 03-12] |  |  |  |  |  |  | 87 | 73 | 61 | 37 | 78 | 67 | 
O=C(Nc1nc2cc(O)ccc2s1)c1ccccn1 [Compound 03-13] |  |  |  |  |  |  | 91 | 89 | 94 | 38 | 63 | 100 | 
COc1ccc2sc(NC(C)=O)nc2c1 [Compound 03-21] | 93% | 82% | 62% | 45% | 91% | 77% |  |  |  |  |  |  | 
CC(=O)Nc1nc2ccccc2s1 [Compound 03-32] |  |  |  |  |  |  | 76 | 104 | 89 | 65 | 109 | 89 | 
O=C(Nc1nc2cc(O)ccc2s1)c1cccnc1 [Compound 03-33] |  |  |  |  |  |  | 92 | 87 | 46 | 57 | 81 | 21 | 
O=C(Nc1nc2ccc(O)cc2s1)c1ccccc1 [Compound 03-60] |  |  |  |  |  |  | 78 | 45 | 14 | 26 | 27 | 18 | 
CC(=O)Nc1nc2cc(C(F)(F)F)ccc2s1 [Compound 03-73] | 96% | 100% | 106% | 85% | 93% | 89% |  |  |  |  |  |  | 
CC(=O)Nc1nc2cc(C)ccc2s1 [Compound 03-76] |  |  |  |  |  |  | 72 | 97 | 80 | 59 | 89 | 81 | 
CC(=O)Nc1nc2cc(F)ccc2s1 [Compound 03-77] | 66% | 99% | 91% | 46% | 91% | 64% |  |  |  |  |  |  | 
O=C(Nc1nc2ccc(O)cc2s1)c1ccncc1 [Compound 08-42] |  |  |  |  |  |  | 72 | 59 | 43 | 38 | 47 | 53 | 
O=C(Nc1nc2ccc(O)cc2s1)c1cccnc1 [Compound 08-44] |  |  |  |  |  |  | 72 | 51 | 21 | 37 | 50 | 19 | 
